# Assay results published in ChEMBL document CHEMBL4270491, “Novel 2,4- thiazolidinediones: Synthesis, in vitro cytotoxic activity, and mechanistic investigation” (Eur J Med Chem, 2017).
# Activity calls are given as the source filed them. No cut-off for these calls is given here.
# Assays:
# HT-1080 [1] = assay: Induction of cell cycle arrest in human HT1080 cells assessed as accumulation at G0/G1 phase at 50 uM incubated for 48 hrs by propidium iodide staining based flow cytometry; format: functional
# MDA-MB-231 [2] = assay: Cytotoxic activity in human MDA-MB-231 cells assessed as reduction in cell viability incubated for 3 days by MTT assay; format: functional, cell-based; details: MDA-MB-231, 72 h
# HT-1080 [3] = assay: Cytotoxic activity in human HT1080 cells assessed as reduction in cell viability incubated for 3 days by MTT assay; format: functional, cell-based; details: HT-1080, 72 h
# HT-1080 [4] = assay: Induction of apoptosis in human HT1080 cells assessed as induction of caspase-3 cleavage at 50 uM incubated for 24 hrs by Western blot analysis; format: functional, cell-based
# HT-1080 [5] = assay: Induction of cell cycle arrest in human HT1080 cells assessed as accumulation at G2/M phase at 50 uM incubated for 48 hrs by propidium iodide staining based flow cytometry; format: functional
# HT-1080 [6] = assay: Induction of apoptosis in human HT1080 cells assessed as induction of DNA fragmentation at 50 uM incubated for 48 hrs by flow cytometry; format: functional, cell-based
# PC-3 [7] = assay: Cytotoxic activity in human PC3 cells assessed as reduction in cell viability incubated for 3 days by MTT assay; format: functional, cell-based; details: PC-3, 72 h
# HT-1080 [8] = assay: Increase in p21(WAF1) protein expression in human HT1080 cells at 50 uM incubated for 24 hrs by Western blot analysis; format: functional, cell-based
# HT-1080 [9] = assay: Induction of cell cycle arrest in human HT1080 cells assessed as accumulation at G0/G1 phase at 20 uM incubated for 48 hrs by propidium iodide staining based flow cytometry; format: functional
# [10] = biological target: T1, Mitogen-activated protein kinase; ERK1/ERK2 (Homo sapiens) (UniProt P27361+P28482); assay: Induction of ERK1/2 Thr202/Tyr204 phosphorylation in human PC3 cells at 50 uM incubated for 24 hrs by Western blot analysis; format: cell-based
# T1 sequence (P27361 whole entry, looked up): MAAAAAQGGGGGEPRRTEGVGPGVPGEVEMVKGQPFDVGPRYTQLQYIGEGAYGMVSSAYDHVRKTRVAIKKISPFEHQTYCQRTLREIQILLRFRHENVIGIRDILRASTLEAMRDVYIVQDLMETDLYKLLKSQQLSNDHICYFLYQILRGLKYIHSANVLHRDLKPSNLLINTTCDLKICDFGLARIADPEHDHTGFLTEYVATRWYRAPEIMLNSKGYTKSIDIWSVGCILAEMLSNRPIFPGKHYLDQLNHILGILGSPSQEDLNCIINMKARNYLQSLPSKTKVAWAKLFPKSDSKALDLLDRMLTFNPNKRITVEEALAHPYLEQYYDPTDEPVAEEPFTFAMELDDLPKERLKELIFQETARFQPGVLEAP
# T1 sequence (P28482 whole entry, looked up): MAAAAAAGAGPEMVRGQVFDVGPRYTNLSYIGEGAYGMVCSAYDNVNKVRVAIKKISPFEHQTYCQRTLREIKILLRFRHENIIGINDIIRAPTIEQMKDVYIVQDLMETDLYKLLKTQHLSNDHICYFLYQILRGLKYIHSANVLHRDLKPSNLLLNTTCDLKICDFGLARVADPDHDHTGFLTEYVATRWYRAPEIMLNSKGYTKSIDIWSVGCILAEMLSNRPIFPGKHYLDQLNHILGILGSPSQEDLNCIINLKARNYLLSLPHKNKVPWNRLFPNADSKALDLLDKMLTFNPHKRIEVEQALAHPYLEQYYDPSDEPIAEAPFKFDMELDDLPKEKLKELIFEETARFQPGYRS
# MDA-MB-231 [11] = assay: Increase in p21(WAF1) protein expression in human MDA-MB-231 cells at 50 uM incubated for 24 hrs by Western blot analysis; format: functional, cell-based
# [12] = biological target: T1, Mitogen-activated protein kinase; ERK1/ERK2 (Homo sapiens); assay: Inhibition of ERK1/2 Thr202/Tyr204 phosphorylation in human MDA-MB-231 cells at 50 uM incubated for 24 hrs by Western blot analysis; format: cell-based
# PC-3 [13] = assay: Increase in p21(WAF1) protein expression in human PC3 cells at 50 uM incubated for 24 hrs by Western blot analysis; format: functional, cell-based
# HT-1080 [14] = assay: Induction of cell cycle arrest in human HT1080 cells assessed as accumulation at G2/M phase at 20 uM incubated for 48 hrs by propidium iodide staining based flow cytometry; format: functional
SMILES,Activity (HT-1080 [1]),IC50 (MDA-MB-231 [2]) [µM],IC50 (HT-1080 [3]) [µM],Activity (HT-1080 [4]),Activity (HT-1080 [5]),Activity (HT-1080 [6]),IC50 (PC-3 [7]) [µM],Activity (HT-1080 [8]),Activity (HT-1080 [9]),Activity [10],Activity (MDA-MB-231 [11]),inhibition [12],Activity (PC-3 [13]),Activity (HT-1080 [14])
COc1cc(/C=C2/SC(=O)NC2=O)ccc1OCc1nc2ccccc2c(=O)n1-c1ccc(Br)cc1,Active,51.3,18.9,Active,Active,Active,51.1,,,,,,,
O=C1S/C(=C/c2ccccc2)C(=O)N1Cc1nc2ccccc2c(=O)n1-c1cccc(Br)c1,,23.4,24.6,,,,37,,,,,,,
COc1cc(/C=C2/SC(=O)NC2=O)ccc1OCc1nc2ccccc2c(=O)n1-c1ccc(C(F)(F)F)cc1,Active,41,38.8,Active,Active,Active,50.1,,,,,,,
O=C1NC(=O)/C(=C\c2ccc(OCc3nc4ccccc4c(=O)n3-c3cccc(Cl)c3)cc2)S1,Active,58.5,44.8,,Active,Active,70.2,,,,,,,
Cc1ccc(/C=C2/SC(=O)N(Cc3nc4ccccc4c(=O)n3-c3ccccc3)C2=O)cc1,,39.7,68.4,,,,82.4,,,,,,,
Cc1cccc(-n2c(COc3ccc(/C=C4/SC(=O)NC4=O)cc3)nc3ccccc3c2=O)c1,,> 100,54,,,,> 100,,,,,,,
O=C1NC(=O)/C(=C\c2ccc(OCc3nc4ccccc4c(=O)n3-c3ccc(C(F)(F)F)cc3)cc2)S1,,13,9,Active,,Active,19.1,inactive,Active,Active,Active,Active,Active,Active
COc1cccc2c1C(=O)c1c(O)c3c(c(O)c1C2=O)C[C@@](O)(C(=O)CO)C[C@@H]3O[C@H]1C[C@H](N)[C@H](O)[C@H](C)O1 [DOXORUBICIN],,0.36,0.017,,,,0.3,,,,,,,
O=C1NC(=O)/C(=C\c2ccc(OCc3nc4ccccc4c(=O)n3-c3cccc(Br)c3)cc2)S1,Active,49.8,28.4,,Active,Active,52.9,,,,,,,
CN(C)c1ccc(/C=C2/SC(=O)N(Cc3nc4ccccc4c(=O)n3-c3ccccc3)C2=O)cc1,,5.9,9,Active,,Active,19.4,,Active,Active,,Active,,Active
COc1cc(/C=C2/SC(=O)NC2=O)ccc1OCc1nc2ccccc2c(=O)n1-c1ccccc1,Active,84.2,64.7,,Active,Active,64.2,,,,,,,
COc1cc(-n2c(CN3C(=O)S/C(=C/c4ccc(N(C)C)cc4)C3=O)nc3ccccc3c2=O)cc(OC)c1OC,Active,> 100,98.1,Active,Active,inactive,> 100,,,,,,,
CCc1ccc(CCOc2ccc(CC3SC(=O)NC3=O)cc2)nc1 (stereo not given) [PIOGLITAZONE],,> 100,> 100,,,inactive,> 100,inactive,,,Active,,Active,
COc1cccc(-n2c(COc3ccc(/C=C4/SC(=O)NC4=O)cc3)nc3ccccc3c2=O)c1,Active,59.6,45.6,,Active,Active,66.9,,,,,,,
Cc1ccc(-n2c(COc3ccc(/C=C4/SC(=O)NC4=O)cc3)nc3ccccc3c2=O)cc1,Active,72.2,45.3,,Active,Active,82.5,,,,,,,
COc1ccc(-n2c(CN3C(=O)S/C(=C/c4ccc(N(C)C)cc4)C3=O)nc3ccccc3c2=O)cc1OC,Active,> 100,86.5,Active,Active,Active,> 100,,,,,,,
COc1cc(/C=C2/SC(=O)NC2=O)ccc1OCc1nc2ccccc2c(=O)n1-c1cccc(Br)c1,Active,62.1,41.9,,Active,Active,66.8,,,,,,,
COc1cc(/C=C2/SC(=O)NC2=O)ccc1OCc1nc2ccccc2c(=O)n1-c1cccc(Cl)c1,,72.5,67.6,,,,62.1,,,,,,,
O=C1NC(=O)/C(=C\c2ccc(OCc3nc4ccccc4c(=O)n3-c3ccccc3)cc2)S1,Active,50.7,34.9,,Active,Active,71,,,,,,,
COc1cccc(-n2c(COc3ccc(/C=C4/SC(=O)NC4=O)cc3OC)nc3ccccc3c2=O)c1,Active,87.2,47.9,,Active,Active,64.1,,,,,,,
O=C1NC(=O)/C(=C\c2ccc(OCc3nc4ccccc4c(=O)n3-c3ccc(Cl)cc3)cc2)S1,,4.5,3.9,Active,,Active,8.7,inactive,Active,Active,Active,Active,Active,Active
O=C1S/C(=C/c2ccc(Cl)cc2Cl)C(=O)N1Cc1nc2ccccc2c(=O)n1-c1ccccc1,,6.4,12.2,,,inactive,58.1,,Active,,,,,Active
O=C1NC(=O)/C(=C\c2ccc(OCc3nc4ccccc4c(=O)n3-c3ccc(Br)cc3)cc2)S1,Active,45.4,46.1,,Active,Active,60.7,,,,,,,
O=C1NC(=O)/C(=C\c2ccc(OCc3nc4ccccc4c(=O)n3-c3ccc(F)cc3)cc2)S1,Active,46.2,45.3,,Active,Active,52.1,,,,,,,
COc1ccc(/C=C2/SC(=O)N(Cc3nc4ccccc4c(=O)n3-c3ccccc3)C2=O)cc1,Active,32.5,47.8,,Active,Active,79.6,,,,,,,
